Where two headings read alike, the source gives them in different places.
Test: MAD study in individuals with diabetes: plasma pharmacokinetics
Format: in vivo, human
Details: for AUC(0-inf) / Cmax / Tmax / half-life / CL/F: both sexes, human, plasma
Source text: Studies are designed to evaluate the safety, tolerability, PD and PK of the GGG tri-receptor agonist (SEQ ID NO:1) in individuals with diabetes. The MAD study is a randomized, investigator- and participant-blind, placebo-controlled, multiple-ascending dose, single-site study conducted in individuals with diabetes (i.e., females or males aged 20-70 years, inclusive, with T2DM for at least 3 months and HbA1c at lead-in and screening of ≥7.0% and ≤10.5% and treated with diet and exercise alone or a stable dose of metformin for at least 3 months prior to screening, with stable body weight for 3 months prior to randomization and with a BMI of 23-50 kg/m^2 at screening).
Dose escalation of the GGG tri-receptor agonist is assessed over 12 weeks in cohorts with a starting dose of 0.5 mg. One cohort of 13 individuals is administered 0.5 mg for 12 weeks. A second cohort of 13 individuals is administered 1.5 mg for 12 weeks. A third cohort of 15 individuals is administered 3.0 mg for 12 weeks. A fourth cohort of 15 individuals is administered 3.0 mg for 4 weeks and then administered 6.0 mg for 8 weeks. A fifth cohort of 16 individuals is administered 3.0 mg for 2 weeks, administered 6.0 mg for 2 weeks, administered 9.0 mg for 4 weeks, and then administered 12 mg for 4 weeks. Alternate dose increment steps may be introduced based on emerging safety and tolerability data from the preceding cohorts, and the dose increment steps can be reduced. As a non-limiting example, in Cohort 4, escalation from starting dose of 3 mg may occur via a step-through dose of 4.5 mg before attaining 6 mg, in Cohort 5, escalation from starting dose of 3 to 12 mg may occur via an additional step through dose level of 4.5 mg, prior to the planned doses 6 and 9 mg. In addition to these proposed alternate regimens in Cohort 4 and Cohort 5, planned dose for escalation between cohorts and within cohorts may be further reduced if warranted by safety or tolerability data.
Blood samples are collected on Day 1 at pre-dose and at 12 hr, 24 hr, 48 hr (Day 2) and 72 hr post-dose, as well as at pre-dose on Days 7, 14 and 21, to determine plasma concentration of the GGG tri-receptor agonist. Blood samples also are collected on Day 29 at pre-dose and at 12 hr, 24 hr, 48 hr and 72 hr post-dose, as well as at pre-dose on Days 36, 43 and 50, to determine plasma concentration of the GGG tri-receptor agonist. Blood samples also are collected on Day 57 at pre-dose and at 12 hr, 24 hr, 48 hr and 72 hr post-dose, as well as at pre-dose on Days 64 and 71, to determine plasma concentration of the GGG tri-receptor agonist. Blood samples also are collected on Day 78 at pre-dose and at 12 hr, 24 hr, 48 hr and 72 hr post-dose, as well as at pre-dose on Day 85, to determine plasma concentration of the GGG tri-receptor agonist. Human plasma samples from individuals administered the GGG tri-receptor agonist are analyzed at Q2 Solutions (Ithaca, NY). Concentrations of the GGG tri-receptor agonist are assayed using a validated liquid chromatography high resolution mass spectrometry method, where the lower limits of quantification are 1 ng/ml or 3 ng/ml and the upper limit of quantification is 500 ng/mL.
Blood samples are likewise collected at Weeks 14 and 16 for PK analysis. As above, plasma concentrations are used to compute PK parameters using standard non-compartmental methods in a validated software program (Phoenix WinNonlin Version 8.1).

[1] = 12 mg, 3.0, 6.0, 9.0, 12.0 mg QW, Day 1
[2] = 12 mg, 3.0, 6.0, 9.0, 12.0 mg QW, Day 29
[3] = 12 mg, 3.0, 6.0, 9.0, 12.0 mg QW, Day 57
[4] = 12 mg, 3.0, 6.0, 9.0, 12.0 mg QW, Day 78

CC[C@H](C)[C@H](NC(=O)[C@H](Cc1ccccc1)NC(=O)[C@H](C)NC(=O)C(C)(C)NC(=O)[C@H](CCC(N)=O)NC(=O)[C@H](C)NC(=O)[C@H](CCCCNC(=O)COCCOCCNC(=O)CC[C@H](NC(=O)CCCCCCCCCCCCCCCCCCC(=O)O)C(=O)O)NC(=O)[C@H](CCCCN)NC(=O)[C@H](CC(=O)O)NC(=O)[C@H](CC(C)C)NC(=O)[C@](C)(CC(C)C)NC(=O)[C@@H](NC(=O)[C@H](CO)NC(=O)[C@H](Cc1ccc(O)cc1)NC(=O)[C@H](CC(=O)O)NC(=O)[C@H](CO)NC(=O)[C@@H](NC(=O)[C@H](Cc1ccccc1)NC(=O)[C@@H](NC(=O)CNC(=O)[C@H](CCC(N)=O)NC(=O)C(C)(C)NC(=O)[C@@H](N)Cc1ccc(O)cc1)[C@@H](C)O)[C@@H](C)O)[C@@H](C)CC)C(=O)N[C@@H](CCC(=O)O)C(=O)N[C@@H](Cc1ccc(O)cc1)C(=O)N[C@@H](CC(C)C)C(=O)N[C@@H](CC(C)C)C(=O)N[C@@H](CCC(=O)O)C(=O)NCC(=O)NCC(=O)N1CCC[C@H]1C(=O)N[C@@H](CO)C(=O)N[C@@H](CO)C(=O)NCC(=O)N[C@@H](C)C(=O)N1CCC[C@H]1C(=O)N1CCC[C@H]1C(=O)N1CCC[C@H]1C(=O)N[C@@H](CO)C(N)=O [GGG tri-receptor agonist, Y-Aib-QGTFTSDYSI-αMeL-LDKK((2-[2-(2-amino-ethoxy)-ethoxy]-acetyl)-(γGlu)-CO-(CH2)18-CO2H)AQ-Aib-AFIEYLLEGGPSSGAPPPS-NH2]
AUC (0-τ) and Cmax dose proportionality (3.0, 6.0 and 12.0 mg, Week 12): increase in a dose-proportional manner
AUC(0-inf) (0.5 mg, 0.5 mg QW, Day 1): 7180 ng·h/mL
Cmax (0.5 mg, 0.5 mg QW, Day 1): 54.1 ng/mL
Tmax (0.5 mg, 0.5 mg QW, Day 1): 48 h
AUC(0-inf) (0.5 mg, 0.5 mg QW, Day 29): 14400 ng·h/mL
Cmax (0.5 mg, 0.5 mg QW, Day 29): 118 ng/mL
Tmax (0.5 mg, 0.5 mg QW, Day 29): 23.8 h
AUC(0-inf) (0.5 mg, 0.5 mg QW, Day 57): 11800 ng·h/mL
Cmax (0.5 mg, 0.5 mg QW, Day 57): 86.8 ng/mL
Tmax (0.5 mg, 0.5 mg QW, Day 57): 36 h
AUC(0-inf) (1.5 mg, 1.5 mg QW, Day 1): 22600 ng·h/mL
Cmax (1.5 mg, 1.5 mg QW, Day 1): 228 ng/mL
Tmax (1.5 mg, 1.5 mg QW, Day 1): 24 h
AUC(0-inf) (1.5 mg, 1.5 mg QW, Day 29): 35900 ng·h/mL
Cmax (1.5 mg, 1.5 mg QW, Day 29): 252 ng/mL
Tmax (1.5 mg, 1.5 mg QW, Day 29): 24 h
AUC(0-inf) (3 mg, 3.0 mg QW, Day 1): 33800 ng·h/mL
Cmax (3 mg, 3.0 mg QW, Day 1): 290 ng/mL
Tmax (3 mg, 3.0 mg QW, Day 1): 23.8 h
AUC(0-inf) (3 mg, 3.0 mg QW, Day 29): 68100 ng·h/mL
Cmax (3 mg, 3.0 mg QW, Day 29): 531 ng/mL
Tmax (3 mg, 3.0 mg QW, Day 29): 12.2 h
AUC(0-inf) (3 mg, 3.0 mg QW, Day 57): 66300 ng·h/mL
Cmax (3 mg, 3.0 mg QW, Day 57): 562 ng/mL
Tmax (3 mg, 3.0 mg QW, Day 57): 24 h
AUC(0-inf) (3 mg, 3.0 mg QW, Day 78): 70100 ng·h/mL
Cmax (3 mg, 3.0 mg QW, Day 78): 571 ng/mL
Tmax (3 mg, 3.0 mg QW, Day 78): 12.2 h
half-life (3 mg, 3.0 mg QW, Day 78, read-out: t½ (converted)): 137 h
AUC(0-inf) (6 mg, 3.0, 6.0 mg QW, Day 1): 34500 ng·h/mL
Cmax (6 mg, 3.0, 6.0 mg QW, Day 1): 292 ng/mL
Tmax (6 mg, 3.0, 6.0 mg QW, Day 1): 24 h
AUC(0-inf) (6 mg, 3.0, 6.0 mg QW, Day 29): 86400 ng·h/mL
Cmax (6 mg, 3.0, 6.0 mg QW, Day 29): 711 ng/mL
Tmax (6 mg, 3.0, 6.0 mg QW, Day 29): 12.1 h
AUC(0-inf) (6 mg, 3.0, 6.0 mg QW, Day 57): 136000 ng·h/mL
Cmax (6 mg, 3.0, 6.0 mg QW, Day 57): 1170 ng/mL
Tmax (6 mg, 3.0, 6.0 mg QW, Day 57): 24 h
AUC(0-inf) (6 mg, 3.0, 6.0 mg QW, Day 78): 137000 ng·h/mL
Cmax (6 mg, 3.0, 6.0 mg QW, Day 78): 1060 ng/mL
Tmax (6 mg, 3.0, 6.0 mg QW, Day 78): 24 h
half-life (6 mg, 3.0, 6.0 mg QW, Day 78, read-out: t½ (converted)): 135 h
AUC(0-inf) [1]: 31800 ng·h/mL
Cmax [1]: 265 ng/mL
Tmax [1]: 23.9 h
AUC(0-inf) [2]: 150000 ng·h/mL
Cmax [2]: 1320 ng/mL
Tmax [2]: 23.8 h
AUC(0-inf) [3]: 262000 ng·h/mL
Cmax [3]: 2070 ng/mL
Tmax [3]: 24 h
AUC(0-inf) [4]: 293000 ng·h/mL
Cmax [4]: 2410 ng/mL
Tmax [4]: 23.9 h
half-life (12 mg, 3.0, 6.0, 9.0, 12.0 mg QW, Day 78, read-out: t½ (converted)): 143 h
Tmax (MAD study, after dosing): 12 to 72 h
half-life (MAD study, read-out: mean half-life): ~144 h
half-life (subcutaneous, across all dose levels, read-out: geometric mean t½): 135 to 143 h
CL/F (3.0 mg QW, Day 78): 0.713 mL/min
CL/F (3.0, 6.0 mg QW, Day 78): 0.728 mL/min
CL/F (3.0, 6.0, 9.0, 12.0 mg QW, Day 78): 0.683 mL/min

From patent US12496329B2, “Methods of using and compositions including an incretin analog” (Eli Lilly and Company, priority 2021, dated 2025)
